In patent US20250333431A1, “NEW CRYSTAL FORM OF TRISACCHARIDE” (SHANDONG HENGLU BIOTECH. CO., LTD., priority 2022, published 2025):

Columns and labels:
[1] = Moisture absorption measurement in a Constant Temperature & Humidity Chamber; assay type: physicochemical; conditions: for Moisture absorption rate, % / Weight gain after moisture absorption: after 5 days; for Weight gain after moisture absorption: about 1 g sample; for Appearance before experiment: before placing in chamber, open glass culture dish
Procedure: On the day before the constant temperature and moisture test, two dry glass culture dishes (without covers) are taken and placed in a Constant Temperature & Humidity Chamber at 25±1° C. and relative humidity of 75±2% for 4 h. The processed dishes are taken out and weighed accurately. The experiment is repeated until the weight is constant, and the data is recorded in Table 3.
Step 2. The raw material LNTII solid amorphous powder and the crystalline form B of LNTII obtained from Example 1 are weighed separately, placed in a glass culture dish without cover with constant weight in Step 1. The culture dish with samples added are placed in a Constant Temperature & Humidity Chamber at 25° C. and relative humidity of 75%. After 5 days, the samples are taken out to observe the appearance changes, weigh, and calculate the moisture absorption. The results are recorded in Table 2 and Table 3, respectively. The results of samples morphology before and after moisture absorption are shown in FIG. 5 and FIG. 6, respectively.
According to the method described herein in Example 9, the crystalline form B of LNTII prepared according to Examples 1-8 is placed in a glass culture dish without cover with constant weight in Step 1. The culture dish with samples added are placed in a Constant Temperature & Humidity Chamber at 25° C. and relative humidity of 75%. After 5 days, the samples are taken out to observe the appearance changes, weigh, and calculate the moisture absorption.

[2] = Stability study in a Constant Temperature & Humidity Chamber (LNTII content by HPLC and appearance); assay type: physicochemical; conditions: for Content, % (At the end of the 1st month): sealed with aluminum compound packing film; for Content, % (At the end of the 1st month) / Appearance (At the end of the 1st month): 1 month; for Appearance (At the end of the 1st month) / Content, % (At the end of the 2nd month) / Content, % (At the end of the 3rd month) / Appearance (At the end of the 3rd month): sealed; for Content, % (At the end of the 2nd month): 2 months; for Content, % (Day 0): LNTII content by HPLC
Procedure: In this invention, high-performance liquid chromatography (HPLC) is used to detect the content of LNTII under the following detection conditions:
Chromatographic column: Asahipak NH2P-504E 4.6 mm×250 mm, 5 μm, mobile phase: acetonitrile: water=65:35, flow rate: 1 mL/min, detector: UV-VIS detector, wavelength: 210 nm, column temperature: 30° C., sample volume: 10 μL, and the running time of 30 min.
An amount of 10 g of raw material before crystallization (i.e. LNTII amorphous powder obtained by spray-drying) and 10 g of crystalline form B of LNTII prepared by the method described herein in Examples 1-8 are weighed respectively, sealed with aluminum compound packing film, and placed in a Constant Temperature & Humidity Chamber under the test conditions of at constant temperature of 40° C. and relative humidity of 75%. Samples are taken at the end of the 1st month, the 2nd month, and the 3rd month to test the content of LNTII and observe its appearance.

[3] = 25° C., relative humidity 75%, Table 3, (weight gain/sample weight) × 100%
[4] = 40° C., relative humidity 75%, 3 months
[5] = 25° C., relative humidity 75%, Table 4, Examples 1-8

Moisture absorption rate, % [1, 3] [%] | Weight gain after moisture absorption ([1]; 25° C., relative humidity 75%) | Appearance before experiment [1] | Change of LNTII content during the stability experiment [2, 4] | Change of appearance/color during the stability experiment [2, 4] | Content, % (At the end of the 1st month) ([2]; 40° C., relative humidity 75%) [%] | Appearance (At the end of the 1st month) ([2]; 40° C., relative humidity 75%) | Content, % (At the end of the 2nd month) ([2]; 40° C., relative humidity 75%) [%] | Content, % (At the end of the 3rd month) [2, 4] [%] | Content, % (Day 0) [2] [%] | Moisture absorption rate, % [1, 5] [%] | Appearance (At the end of the 3rd month) [2, 4] | Stability compared with amorphous powder (from appearance and moisture absorption) ([1]; 25° C., relative humidity 75%, 5 days, conclusion from Tables 2 and 3) | SMILES
 |  |  |  |  | 92.43 | Off-white | 92.39 | 92.31 | 92.4 | 13.32 | Off-white |  | CC(=O)NC1C(O)[C@H](O)C(CO)O[C@H]1OC1C(O)[C@H](O[C@@H]2C(CO)OC(O)C(O)C2O)OC(CO)[C@@H]1O (single isomer, unassigned) [Crystalline form B in Example 6, Lacto-N-triose II]
 |  |  |  |  | 96.44 | Off-white | 96.42 | 96.38 | 96.5 | 14.36 | Off-white |  | CC(=O)NC1C(O)[C@H](O)C(CO)O[C@H]1OC1C(O)[C@H](O[C@@H]2C(CO)OC(O)C(O)C2O)OC(CO)[C@@H]1O (single isomer, unassigned) [Crystalline form B in Example 2, Lacto-N-triose II]
16.16 | 0.1617 | Off-white |  |  |  |  |  |  |  |  |  | better than that of amorphous powder | CC(=O)NC1C(O)[C@H](O)C(CO)O[C@H]1OC1C(O)[C@H](O[C@@H]2C(CO)OC(O)C(O)C2O)OC(CO)[C@@H]1O (stereo partly shown) [Crystalline form B of LNTII, Lacto-N-triose II]
 |  |  |  |  | 96.81 | Off-white | 96.78 | 96.76 | 96.8 | 14.02 | Off-white |  | CC(=O)NC1C(O)[C@H](O)C(CO)O[C@H]1OC1C(O)[C@H](O[C@@H]2C(CO)OC(O)C(O)C2O)OC(CO)[C@@H]1O (single isomer, unassigned) [Crystalline form B in Example 1, Lacto-N-triose II]

More lines, now with the values behind:

SMILES | Moisture absorption rate, % [1, 3] [%] | Weight gain after moisture absorption ([1]; 25° C., relative humidity 75%) | Appearance before experiment [1] | Change of LNTII content during the stability experiment [2, 4] | Change of appearance/color during the stability experiment [2, 4] | Content, % (At the end of the 1st month) ([2]; 40° C., relative humidity 75%) [%] | Appearance (At the end of the 1st month) ([2]; 40° C., relative humidity 75%) | Content, % (At the end of the 2nd month) ([2]; 40° C., relative humidity 75%) [%] | Content, % (At the end of the 3rd month) [2, 4] [%] | Content, % (Day 0) [2] [%] | Moisture absorption rate, % [1, 5] [%] | Appearance (At the end of the 3rd month) [2, 4] | Stability compared with amorphous powder (from appearance and moisture absorption) ([1]; 25° C., relative humidity 75%, 5 days, conclusion from Tables 2 and 3)
CC(=O)NC1C(O)[C@H](O)C(CO)O[C@H]1OC1C(O)[C@H](O[C@@H]2C(CO)OC(O)C(O)C2O)OC(CO)[C@@H]1O (stereo partly shown) [LNTII amorphous powder, Lacto-N-triose II, reference compound] | 29.47 | 0.2951 | Off-white powder | showed a decreasing trend | gradually changed to faint yellow | 91.01 | Off-white | 90.86 | 90.01 | 91.24 |  |  | 
CC(=O)NC1C(O)[C@H](O)C(CO)O[C@H]1OC1C(O)[C@H](O[C@@H]2C(CO)OC(O)C(O)C2O)OC(CO)[C@@H]1O (single isomer, unassigned) [Crystalline form B in Example 4, Lacto-N-triose II] |  |  |  |  |  | 96.13 | Off-white | 96.06 | 96.07 | 96.1 | 13.81 | Off-white | 
CC(=O)NC1C(O)[C@H](O)C(CO)O[C@H]1OC1C(O)[C@H](O[C@@H]2C(CO)OC(O)C(O)C2O)OC(CO)[C@@H]1O (single isomer, unassigned) [Crystalline form B in Example 5, Lacto-N-triose II] |  |  |  |  |  | 93.56 | Off-white | 93.48 | 93.34 | 93.4 | 13.79 | Off-white | 
CC(=O)NC1C(O)[C@H](O)C(CO)O[C@H]1OC1C(O)[C@H](O[C@@H]2C(CO)OC(O)C(O)C2O)OC(CO)[C@@H]1O (single isomer, unassigned) [Crystalline form B in Example 3, Lacto-N-triose II] |  |  |  |  |  | 96.92 | Off-white | 96.93 | 96.84 | 96.9 | 13.57 | Off-white | 
CC(=O)NC1C(O)[C@H](O)C(CO)O[C@H]1OC1C(O)[C@H](O[C@@H]2C(CO)OC(O)C(O)C2O)OC(CO)[C@@H]1O (single isomer, unassigned) [Crystalline form B in Example 8, Lacto-N-triose II] |  |  |  |  |  | 96.48 | Off-white | 96.49 | 96.46 | 96.5 | 13.61 | Off-white | 
CC(=O)NC1C(O)[C@H](O)C(CO)O[C@H]1OC1C(O)[C@H](O[C@@H]2C(CO)OC(O)C(O)C2O)OC(CO)[C@@H]1O (single isomer, unassigned) [Crystalline form B in Example 7, Lacto-N-triose II] |  |  |  |  |  | 93.77 | Off-white | 93.81 | 93.75 | 93.8 | 13.04 | Off-white | 
